Here are results for two compounds from patent publication US8618023B2, “Microbiocides” (Syngenta Crop Protection, LLC, priority 2006, dated 2013).

One may read the melting point as the temperature, or range, at which the solid turns liquid. `Cn1cc(C(=O)NC2CC2c2ccc(Cl)cc2)c(C(F)F)n1` (centres unmarked) [Compound 1.001, 3-difluoromethyl-1-methyl-1H-pyrazole-4-carboxylic acid [2-(4-chlorophenyl)-cyclopropyl]-amide] showed a melting point of 127 °C. In turn, `O=C(N[C@@H]1C[C@]1(F)c1ccc(Cl)cc1)c1ccccc1C(F)(F)F` [Compound 6.004, N-[(1R,2S)-2-(4-chlorophenyl)-2-fluoro-cyclopropyl]-2-trifluoromethyl-benzamide] returned a melting point of 204 to 206 °C.
